Data: patent US20070042976A1, “Method of treating cosmetic and dermatologic conditions by a demethylating agent” (priority 2005, published 2007)
In brackets after ≈: the same amount, converted by molar mass. Marks after values point to notes of the source that are not given here.

What was measured:
normal human fibroblasts = experiment: Human fibroblasts collagen synthesis assay (14C-proline incorporation, collagenase-labile counts); type: cell-based; set-up: reduction of the amount of collagen synthesized: dose or concentration left out as unconfirmed; details: for Collagen (DPM/cell) with TGF β 1: with TGF β 1 (10 ng/ml), control 9945 +/− 602; for Collagen (DPM/cell) without TGF β 1: control 5267 +/− 1079
Description: Human Fibroblasts Collagen Synthesis Assay
Human fibroblasts were grown in DMEM (10% FCS) in 24-wells plates to approximately 50% confluence. 5-azacytidine (from Sigma) was added for 5 hrs of 37° C. TGF-β1 was added (10 ng/ml) for 2 hours (hrs) at 37° C. Then, L-[U-14C]-proline solution (specific radioactivity 269 mCi/mmol) was added (1.25 μCi/well) and incubated for 20 hrs at 37° C. The cells were then washed with 5 mM proline in PBS and 5 mM proline in 70% methanol and incubated at […] for 20 hrs. […] After 20 hrs, the collagenase treated cultures were centrifuged and a new collagenase solution was added to the cells. The cultures were incubated with the enzyme for an additional 20 hrs. Proline incorporated into protein and released by collagenase treatment is defined as “collagen”. Incorporation of labeled proline into collagen was evaluated by scintillation counting of supernatants. In parallel, the cultures were checked for vitality using a 3-(4, 5-dimethylthiazol-2-yl)-2, 5-diphenyltetrazolium bromide (MTT) reaction. Each concentration of 5-azacytidine was analyzed (n=6), and the effect of 5-azacytidine on collagen synthesis were expressed as averaged DPM per number of viable cells +/− standard deviation.
Human fibroblasts were grown to about 50% confluence and exposed to medium with or without TGF β.

human fibroblasts = experiment: Proliferation of human fibroblasts in culture; type: cell-based; details: previously found by applicant
collagen gene expression = details: human cancer cells, including fibrosarcomas and breast carcinoma; cited from earlier work
alpha 2 collagen gene [1] = details: resistant cells such as HaCaT, Hela and HepG2; cited from earlier work
[2] = tested on: Pro collagen alpha I gene; details: human rhabdomyosarcoma cells; cited from earlier work
collagen type IV gene = details: transformed rat liver cells; cited from earlier work
[3] = tested on: Human squamous cell carcinoma line (SCL-1) cells; experiment: Cell death in human squamous cell carcinoma line with or without UVB (MTT); type: cell-based; details: for % Cell Death with UV: UV alone 22 +/− 0.1
Description: Determination of Cell Death in Response to 5-azacytidine in Human Squamous Cell Carcinoma Line
Human squamous cell carcinoma line (SCL-1) cells were grown in DMEM medium with 10% FCS. 5-azacytidine was added at the indicated concentrations after the cells reached 100% confluence. The cultures were incubated for 24 hrs at 37° C. and then washed in Hepes buffer (pH=7.4) with isotonic salt and exposed to UVB radiation. Cell death was determined using MTT [3-(4, 5-dimethylthiazol-2-yl)-2, 5-diphenyltetrazolium bromide] kit obtained from Sigma. Each concentration of the drug was tested in six wells and the degree of inhibition (vs. controls of untreated cultures) was given as an average (% cell death +/−standard deviation).
The human squamous cells (SCL-1) were grown to about 50% confluence. The cultures were treated with minimal amount of 5-azacytidine, UV radiation, or the combination and cell viability was quantified. […] The exposure of the cells to UV, in the absence of the drug induced a cytotoxic effect in about 22% of the cells. Together, the combination of both UV and 5-azacytidine induced cell death at about 50% of the cancer cells.

alpha 2 collagen gene [4] = details: teratocarcinoma F9 cells; cited from earlier work
pieces of human skin = experiment: Incorporation of labeled proline into pieces of human skin (collagen biosynthesis, skin organ culture); details: for Collagen (DPM/mg tissue): control 333
[5] = Azacytidine 4.8 ug/ml, listed as Azacytidine

IC50 (pieces of human skin; Homo sapiens, read-out: IC50 of collagen biosynthesis in human skin): ~25 µg/mL (≈ 102 µM)
Structure (SMILES): Nc1ncn([C@@H]2O[C@H](CO)[C@@H](O)[C@H]2O)c(=O)n1 [5-azacytidine]
Collagen (DPM/cell) with TGF β 1 (normal human fibroblasts; Azacytidine 1 μg/ml): 8259 +/− 482 DPM/cell | Collagen (DPM/cell) without TGF β 1 (normal human fibroblasts; Azacytidine 1 μg/ml): 5306 +/− 717 DPM/cell | Collagen (DPM/cell) with TGF β 1 (normal human fibroblasts; Azacytidine 5 μg/ml): 6801 +/− 1359* DPM/cell | Collagen (DPM/cell) without TGF β 1 (normal human fibroblasts; Azacytidine 5 μg/ml): 4015 +/− 706* DPM/cell | Collagen (DPM/cell) with TGF β 1 (normal human fibroblasts; Azacytidine 25 μg/ml): 5183 +/− 816* DPM/cell | Collagen (DPM/cell) without TGF β 1 (normal human fibroblasts; Azacytidine 25 μg/ml): 2323 +/− 139* DPM/cell | IC50 (normal human fibroblasts; Fibroblast, stated as similar to the IC50 in human skin, read-out: IC50 of collagen biosynthesis in cultured human fibroblasts): ~25 µg/mL (≈ 102 µM) | effect on TGF β upregulation of collagen biosynthesis (normal human fibroblasts; TGF β stimulated fibroblasts): inhibited in a dose dependent manner the ability of TGF β to upregulate collagen biosynthesis | reduction of the amount of collagen synthesized (normal human fibroblasts; concentration of about 25, basal (without TGF β)): approximately 55% | effect on basal collagen produced (normal human fibroblasts; without TGF β): inhibited the collagen produced in a dose dependent manner | effect on proliferation of fibroblasts in culture (human fibroblasts): inhibits the proliferation | effect on collagen gene expression (collagen gene expression): increased or reactivated collagen gene expression | effect on alpha 2 collagen gene (alpha 2 collagen gene [1]): reactivated | effect on transcription of Pro collagen alpha I gene [2]: transcriptional activation of the Pro collagen alpha I gene | effect on transcription of collagen type IV gene (collagen type IV gene): increases transcription of the collagen type IV gene | % Cell Death with UV ([3]; Azacytidine 0.53 ug/ml): 19 +/− 0.5% | % Cell Death without UVB ([3]; Azacytidine 0.53 ug/ml): 2 +/− 0.7* % | % Cell Death with UV ([3]; Azacytidine 1.6 ug/ml): 21 +/− 0.6% | % Cell Death without UVB ([3]; Azacytidine 1.6 ug/ml): 5 +/− 0.3* % | % Cell Death with UV ([3]; Azacytidine 4.8 ug/ml): about 50% | % Cell Death with UV [3, 5]: 50 +/− 0.2% | % Cell Death without UVB ([3]; Azacytidine 4.8 ug/ml): about 29% | % Cell Death without UVB [3, 5]: 29 +/− 13* % | IC50 ([3]; Homo sapiens, SCL-1, 5-Azacytidine alone (no UV)): 11 µg/mL | combined effect of photo damage and drug on viability ([3]; UV plus 5-azacytidine): additive effect | effect on transcription of alpha 2 collagen gene (alpha 2 collagen gene [4]): induces transcription of alpha 2 collagen gene | effect on collagen biosynthesis by human skin (pieces of human skin): inhibited collagen biosynthesis in a dose dependent manner | % Inhibition of collagen (pieces of human skin; Azacytidine 6.25 ug/ml): 40% | Collagen (DPM/mg tissue) (pieces of human skin; Azacytidine 6.25 ug/ml): 199 +/− 34* DPM/mg tissue | % Inhibition of collagen (pieces of human skin; Azacytidine 25 ug/ml): 48% | Collagen (DPM/mg tissue) (pieces of human skin; Azacytidine 25 ug/ml): 174 +/− 53* DPM/mg tissue | % Inhibition of collagen (pieces of human skin; Azacytidine 100 ug/ml): 72% | Collagen (DPM/mg tissue) (pieces of human skin; Azacytidine 100 ug/ml): 92 +/− 13* DPM/mg tissue
